What was measured:
[1] = Strength assessments and patient-reported quality-of-life outcomes; assay type: in vivo, human; design: RAND – Emotional well-being: scale not given here; conditions: for Grip Strength Evaluation: baseline 15+/-12; for PROMIS – Mobility Item Bank T score (higher = better): baseline 38+/-7; for RAND – Role limitations due to physical health problems: baseline 44+/-13; for RAND SF-36 Physical Functioning (0-100, higher better): baseline 46+/-19; for RAND – Energy/Fatigue: baseline 50+/-29; for RAND – Bodily Pain: baseline 52+/-29; for PROMIS – Fatigue 8A Short Form T score (higher = increased fatigue): baseline 55+/-8; for PROMIS – Pain Interference 8A short form T score (higher = increased pain interference): baseline 56+/-4; for RAND – Social functioning: baseline 59+/-37; for RAND – General health perceptions: baseline 60+/-11; for RAND – Emotional well-being: baseline 67+/-15; for RAND – Role limitations due to emotional health problems: baseline 67 +/-27; for Pinch Test: baseline 6.8 +/-4; for 5x Sit to stand: baseline 15+/-7; for DASH score (0 no disability, 100 severe disability): baseline 16+/-5
Experimental: (§1) Safety, tolerability, and efficacy were evaluated during in‐person visits every 4 weeks at the NIH Clinical Center and included a physical exam, ophthalmologic exam, patient‐reported outcome measures and strength assessments. The Disabilities of Arm Shoulder and Hand Outcome Measurement (DASH) questionnaire was used to measure self‐reported upper extremity symptoms and disability. The RAND 36‐item Short Form Health Survey (RAND SF‐36) version 1.0 was performed to determine effects of infigratinib on health‐related quality of life over the duration of the study. Patient Reported Outcomes Measurement Information System (PROMIS) item banks for fatigue (PROMIS SF v1.0‐Fatigue 8a), mobility (PROMIS Bank v2.0 – Mobility), and pain interference (PROMIS SF v1.1‐Pain Interference 8a) were also performed. Strength assessments included a Six‐Minute Walk Test, Grip Strength assessment, Pinch Strength assessment, and Five Time Sit to Stand. The Grip Strength assessment was performed on the dominant hand using a JAMAR Hand Dynamometer (Sammons Preston, Inc., Bolingbrook, IL, USA) and three successive trials were averaged to determine the final score. The Pinch Strength assessment was performed using the Exacta Hydraulic Pinch Gauge (North Coast Medical, Inc., Morgan Hill, CA, USA) with three successive trials averaged for the final score.

[2] = system: FGF23 (intact and C-terminal), blood phosphate; assay: Biochemical response (iFGF23, cFGF23, phosphate, 1,25D, TRP) in patients with TIO on daily infigratinib; assay type: in vivo, human
Experimental: Subjects received oral daily doses of infigratinib for up to 24 weeks. The initial dose of 75 mg daily was based on studies investigating infigratinib use in subjects with cholangiocarcinoma, as well as our clinical experience with two NIH patients with TIO who had previously participated in an infigratinib trial outside of the NIH (ClinicalTrials.gov NCT02160041). After 8 weeks on therapy, dose escalation and de‐escalation of drug was determined by investigators based on tolerability and changes in C‐terminal FGF23 (cFGF23) levels. Planned dose escalation would occur by 25 mg every 8 weeks to a maximum dose of 125 mg/d if cFGF23 levels were not suppressed to <100 relative units (RU)/mL. De‐escalations or interruptions would occur if a subject experienced an adverse event, including hyperphosphatemia. A cFGF23 assay that measures both the active intact FGF23 molecule and inactivated C‐terminal fragments was used for titration purposes rather than an intact FGF23 (iFGF23) assay because the cFGF23 assay was the only commercially available option at the time.
(§2) Serial sampling was performed every 2 hours for 24 hours after the first dose of infigratinib to evaluate the pharmacokinetics and pharmacodynamics of the drug. Subsequently, laboratory tests were performed every 2 weeks. Routine blood and urine chemistries were performed at the NIH Clinical Center Department of Laboratory Medicine during inpatient stays and outpatient visits. Laboratory testing in the intervening weeks were performed either at the NIH or at a local laboratory, depending on the patient's proximity to the NIH. Infigratinib levels were also measured at weeks 4 and 8.
(§3) Biochemical testing included measurement of routine chemistries, 1,25D (radioimmunoassay; Mayo Medical Laboratories, Rochester, MN, USA), cFGF23 (ELISA; Immutopics International, San Clemente, CA, USA; Mayo Medical Laboratories), iFGF23 (ELISA; Immutopics International), C‐telopeptide (CTx) (electrochemiluminescence immunoassay; Mayo Medical Laboratories), and procollagen 1 intact N‐terminal (P1NP) (competitive radioimmunoassay; Mayo Medical Laboratories). Infigratinib levels were measured by Q2 Lab Solutions (Durham, NC, USA).
Tubular reabsorption of phosphate (TRP) was calculated using the following equation: 100 × [1 – (urine phosphate × serum creatinine)/(serum phosphate × urine creatinine)] and maximum renal tubular phosphate reabsorption in mass per unit volume of glomerular filtrate (TmP/GFR) was determined using the following equations: for TRP ≤0.86 (86%): TmP∕GFR = TRP × phosphate; for TRP >0.86 (86%): TmP∕GFR = (0.3 × TRP)/[1 − (0.8 × TRP)] ×phosphate.^( [20] ^)
At the end of week 24, patients still on therapy were admitted again to the NIH Clinical Center to monitor off‐drug effects with daily blood and urine sampling × 7 days. Subjects with persistent biochemical remission after 7 days would be monitored as outpatients off therapy for 12 additional weeks. Subjects with normal phosphate levels on infigratinib but without persistent biochemical response on cessation were considered for an optional extension phase.

[3] = Safety and adverse events (CTCAE) in the phase 2 TIO trial; assay type: in vivo, human
Experimental: as §1
The primary objective of the study was to induce a persistent metabolic remission, defined by normalization of FGF23 and phosphate after study drug discontinuation. Secondary objectives included evaluating the effects of infigratinib on mineral homeostasis, radiographic appearance of PMTs, quality of life, and muscle strength. Key biochemical end points included changes in iFGF23, cFGF23, phosphate, 1,25D, TRP, and TmP/GFR. Because the study closed prematurely with only four patients enrolled, results were primarily descriptive. Adverse events were summarized by frequency and percentage. Continuous variables were presented as mean ± standard deviation (SD). Linear mixed effects models were fitted to the repeated measures data collected from the 24‐hour serial sampling and the first 8 weeks of therapy when the patients were on the same infigratinib dose (75 mg daily) because, after this point, dose reductions and interruptions occurred. Analysis was performed using SAS (version 9.4; SAS Institute, Inc., Cary, NC, USA). Graphs were produced using GraphPad Prism 8 (GraphPad Software, Inc., La Jolla, CA, USA).

PMT metastases = system: PMT metastases; design: method as in PMID 32905668; conditions: one patient with metastatic TIO, while on therapy, cited from earlier work
[4] = 24-hour pharmacokinetics after the first oral dose of infigratinib 75 mg in patients with TIO; assay type: in vivo; conditions: human, blood
Experimental: as §2, §3

[5] = design: method as in earlier work; conditions: subjects with cholangiocarcinoma; no reactions above grade 2; cited from earlier work
[6] = system: phosphaturic mesenchymal tumors; assay: 18F-FDG-PET/CT and 68Ga-DOTATATE-PET/CT of tumors before and after infigratinib; assay type: in vivo, human
Experimental: In patients with identifiable tumors, recent prior imaging was obtained from the patient record. The imaging studies that best characterized their tumor prior to therapy (18Flouride‐Fluorodeoxyglucose (FDG) DG‐PET/CT and/or 68Gallium (68Ga)‐DOTATATE‐PET/CT) were repeated at the 24‐week visit, if clinically indicated, and the changes were assessed.

[7] = Subject 2, 75 mg then 50 mg daily, up to 24 weeks
[8] = Subject 1, single oral dose 75 mg
[9] = Subject 2, single oral dose 75 mg
[10] = Subject 3, single oral dose 75 mg
[11] = Subject 4, single oral dose 75 mg

## CCN1CCN(c2ccc(Nc3cc(N(C)C(=O)Nc4c(Cl)c(OC)cc(OC)c4Cl)ncn3)cc2)CC1 [Infigratinib]
[1]; 8 Weeks, N=4, mean+/-SD
  Grip Strength Evaluation: 18+/-9 kilograms
[1]; 8 Weeks
  PROMIS – Mobility Item Bank T score (higher = better): 39+/-5
  RAND – Role limitations due to physical health problems: 68+/-31
  RAND SF-36 Physical Functioning (0-100, higher better): 51+/-17
  RAND – Energy/Fatigue: 53+/-22
  RAND – Bodily Pain: 63+/-37
  PROMIS – Fatigue 8A Short Form T score (higher = increased fatigue): 53+/-8
  PROMIS – Pain Interference 8A short form T score (higher = increased pain interference): 52+/-6
  RAND – Social functioning: 78+/-21
  RAND – General health perceptions: 73+/-17
  RAND – Emotional well-being: 72+/-13
  RAND – Role limitations due to emotional health problems: 75+/-32
[1]; 8 Weeks, mean+/-SD
  Pinch Test: 6.8 +/-1 kilograms
  5x Sit to stand: 14 ± 1 s
  DASH score (0 no disability, 100 severe disability): 14+/-5
[1]; 24 Weeks, N=4, mean+/-SD, baseline 474+/-250, normal range 391-751
  6 Minute Walk Test: 474+/-250 496+/-173 meters
[1]; 24 Weeks
  PROMIS – Mobility Item Bank T score (higher = better): 39+/-3
  RAND – Role limitations due to physical health problems: 25+/-50
  RAND SF-36 Physical Functioning (0-100, higher better): 40+/-6
  RAND – Energy/Fatigue: 49+/-33
  RAND – Bodily Pain: 36+/-2.5
  PROMIS – Fatigue 8A Short Form T score (higher = increased fatigue): 52+/-9
  PROMIS – Pain Interference 8A short form T score (higher = increased pain interference): 53+/-9
  RAND – Social functioning: 72+/-33
  RAND – General health perceptions: 71+/-18
  RAND – Emotional well-being: 62+/-10
  RAND – Role limitations due to emotional health problems: 41.7+/-50
[1]; 24 Weeks, mean+/-SD
  Pinch Test: 7+/-1 kilograms
  5x Sit to stand: 11 ± 1 s
  Grip Strength Evaluation: 16+/-1 kilograms
  DASH score (0 no disability, 100 severe disability): 12+/-8
[2]; 75 mg daily, by week 8
  TRP change: increased in all patients
[2]; [7]
  cFGF23 decrease from baseline: 89%
  iFGF23 decrease from baseline: 95%
[2]; Subject 2, first 24 hours after first 75 mg dose
  Reduction in cFGF23: 82%
[2]; Subject 2, neither intact nor C-terminal FGF23 ever normalized
  Biochemical response while on therapy: significant biochemical response
[2]; Subject 2, normal <54 pg/mL
  iFGF23 nadir: 171 pg/mL
[2]; Subject 2, normal <180 RU/mL
  cFGF23 nadir: 241 RU/mL
[2]; Subjects 1, 3 and 4, reversed rapidly with drug cessation
  Metabolic response while on therapy: complete metabolic response
[2]; all patients, 75 mg daily, week 8
  Biochemical response: partial biochemical response
[2]; first 24 hours after first 75 mg dose, p < 0.0001, none exceeded lower limit of normal at hour 24
  Phosphate levels change: increased
[2]; first 24 hours after first 75 mg dose, p < 0.001
  iFGF23 change: decreased significantly
[2]; four TIO patients, up to 24 weeks daily oral
  Enduring metabolic remission (persistently normal FGF23 and blood phosphate following drug discontinuation), primary objective: no subject achieved the primary objective
[3]; 4 subjects
  Serious adverse events: No subjects experienced serious adverse events
  Total Number of Adverse Events: 111
[3]; both improved following drug interruption
  Grade 3 AEs (CTCAE): increased alanine aminotransferase and decreased neutrophil count in subject 2
[3]; continuous daily dosing, drug interruptions required in two patients
  Corneal keratitis with blurred vision: all patients developed corneal keratitis with blurred vision
[3]; in vivo
  Time to normalization of vision after infigratinib discontinuation: ≤ 60 days
[3]; of 111 AEs
  Number of AEs considered possibly, probably, or definitely related to infigratinib: 87
[3]; subjects who developed ocular keratitis on infigratinib
  Corneal scarring, share of subjects: 50%
PMT metastases
  FGF23 change: significant decreases in FGF23
PMT metastases; reversed with cessation
  Tumor burden: profound reduction in tumor burden
[4]; [8]
  AUC: 89.7 ng·h/mL
  Cmax: 28.6 ng/mL
  Tmax: 2 h
  half-life: 2.73 h
[4]; [9]
  AUC: 1090 ng·h/mL
  Cmax: 176 ng/mL
  Tmax: 2 h
  half-life: 7.75 h
[4]; [10]
  AUC: 133 ng·h/mL
  Cmax: 23.8 ng/mL
  Tmax: 4 h
  half-life: 3.02 h
[4]; [11]
  AUC: 764 ng·h/mL
  Cmax: 67.9 ng/mL
  Tmax: 6 h
  half-life: 7.62 h
[5]
  Blurred vision, share of patients: 21%
  Dry eye, including keratitis, share of patients: 44%
[6]; Subjects 1 and 2, after 6 months
  Tumor size change after treatment: without appreciable change in size
[6]; all studies except Subject 1 68Ga scans
  Reduction of SUVmax of the PMTs after treatment: greater than 40%

Source: article PMC9382865, “Infigratinib Reduces Fibroblast Growth Factor 23 (FGF23) and Increases Blood Phosphate in Tumor‐Induced Osteomalacia” (JBMR Plus, 2022)
